Results reported in patent publication EP3807270B1, “NOVEL HETEROARYL HETEROCYCLYL COMPOUNDS FOR THE TREATMENT OF AUTOIMMUNE DISEASE” (F. Hoffmann-La Roche AG, priority 2018, dated 2019).

Columns and labels:
hTLR7 = target: T1, hTLR7 (Homo sapiens, UniProt Q9NYK1); parameters: host or cells: HEK; conditions: data disclosed in US20150105370; read-out: HEK/hTLR7 IC50; cited from earlier work
T1 sequence (Q9NYK1 27-1049): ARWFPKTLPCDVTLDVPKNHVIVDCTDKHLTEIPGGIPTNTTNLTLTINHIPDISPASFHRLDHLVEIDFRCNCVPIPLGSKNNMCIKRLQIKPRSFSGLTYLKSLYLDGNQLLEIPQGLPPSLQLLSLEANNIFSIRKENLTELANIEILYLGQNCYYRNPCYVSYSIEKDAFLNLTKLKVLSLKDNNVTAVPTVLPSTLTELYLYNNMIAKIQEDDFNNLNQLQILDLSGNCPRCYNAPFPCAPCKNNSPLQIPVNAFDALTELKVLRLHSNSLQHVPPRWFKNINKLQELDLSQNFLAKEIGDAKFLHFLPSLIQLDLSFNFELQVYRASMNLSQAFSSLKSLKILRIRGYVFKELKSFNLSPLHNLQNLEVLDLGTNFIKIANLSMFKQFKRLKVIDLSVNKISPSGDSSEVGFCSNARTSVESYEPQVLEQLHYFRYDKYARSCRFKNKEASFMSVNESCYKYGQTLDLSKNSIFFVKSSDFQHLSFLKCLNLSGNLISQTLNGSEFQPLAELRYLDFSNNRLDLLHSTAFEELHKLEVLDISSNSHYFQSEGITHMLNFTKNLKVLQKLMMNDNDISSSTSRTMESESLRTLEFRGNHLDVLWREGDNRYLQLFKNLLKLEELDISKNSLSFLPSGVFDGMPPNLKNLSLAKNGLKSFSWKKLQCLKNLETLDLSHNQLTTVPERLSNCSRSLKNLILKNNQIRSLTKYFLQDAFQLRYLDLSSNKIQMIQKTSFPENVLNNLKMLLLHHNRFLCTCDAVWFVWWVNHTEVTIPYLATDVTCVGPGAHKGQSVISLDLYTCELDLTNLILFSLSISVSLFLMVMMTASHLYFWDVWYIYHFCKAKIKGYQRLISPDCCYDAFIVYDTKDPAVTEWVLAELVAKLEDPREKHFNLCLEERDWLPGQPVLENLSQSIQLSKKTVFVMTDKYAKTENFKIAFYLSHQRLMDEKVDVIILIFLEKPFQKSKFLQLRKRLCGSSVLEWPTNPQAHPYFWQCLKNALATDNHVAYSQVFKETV

hTLR9 = target: T2, hTLR9 (Homo sapiens, UniProt Q9NR96); parameters: host or cells: HEK; conditions: data disclosed in US20150105370; read-out: HEK/hTLR9 IC50; cited from earlier work
T2 sequence (Q9NR96 26-1032): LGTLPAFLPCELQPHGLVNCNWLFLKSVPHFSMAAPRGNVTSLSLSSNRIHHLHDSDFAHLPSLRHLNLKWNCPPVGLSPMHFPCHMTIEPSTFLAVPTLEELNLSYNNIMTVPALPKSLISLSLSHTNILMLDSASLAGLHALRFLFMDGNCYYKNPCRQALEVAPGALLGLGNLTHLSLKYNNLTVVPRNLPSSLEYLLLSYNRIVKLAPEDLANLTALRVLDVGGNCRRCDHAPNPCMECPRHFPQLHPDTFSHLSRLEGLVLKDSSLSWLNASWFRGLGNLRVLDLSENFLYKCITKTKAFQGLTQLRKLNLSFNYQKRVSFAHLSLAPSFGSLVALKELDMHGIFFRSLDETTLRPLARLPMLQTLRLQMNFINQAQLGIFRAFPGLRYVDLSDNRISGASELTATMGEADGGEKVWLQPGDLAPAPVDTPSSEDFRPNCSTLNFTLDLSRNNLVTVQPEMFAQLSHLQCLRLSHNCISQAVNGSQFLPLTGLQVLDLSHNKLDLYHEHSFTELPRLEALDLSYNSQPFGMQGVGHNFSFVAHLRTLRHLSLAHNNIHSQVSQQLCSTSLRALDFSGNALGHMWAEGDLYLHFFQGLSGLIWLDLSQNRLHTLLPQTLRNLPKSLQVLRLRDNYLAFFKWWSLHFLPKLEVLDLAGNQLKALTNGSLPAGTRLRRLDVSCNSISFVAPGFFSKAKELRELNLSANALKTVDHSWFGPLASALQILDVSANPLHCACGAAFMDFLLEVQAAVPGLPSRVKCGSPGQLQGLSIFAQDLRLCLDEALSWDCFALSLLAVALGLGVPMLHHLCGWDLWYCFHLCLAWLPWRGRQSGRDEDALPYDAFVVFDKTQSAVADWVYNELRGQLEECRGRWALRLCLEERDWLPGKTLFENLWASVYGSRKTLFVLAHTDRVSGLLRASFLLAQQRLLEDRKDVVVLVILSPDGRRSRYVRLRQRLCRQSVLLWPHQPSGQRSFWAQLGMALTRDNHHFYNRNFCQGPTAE

hERG channel = target: T3, hERG channel (Homo sapiens, UniProt Q12809); test: hERG channel inhibition assay (patch-clamp, CHO hERG cells); type: cell-based; conditions: for IC50 / IC20: CHO hERG cells, whole-cell patch-clamp; for IC20: human, CHO cells stably expressing hERG; for hERG IC20 / TLR7 IC50 / hERG IC20 / TLR9 IC50: safety ratio; for hERG IC20 / TLR7 IC50: TLR7 IC50 of ER compounds from Table 1; for hERG IC20 / TLR9 IC50: TLR9 IC50 of ER compounds from Table 1
T3 construct: expressed in transfected cells; host or cells: CHO (Chinese hamster ovary)
Method: The hERG K^+ channels were cloned in humans and stably expressed in a CHO (Chinese hamster ovary) cell line. CHOhERG cells were used for patch-clamp (voltage-clamp, whole-cell) experiments. Cells were stimulated by a voltage pattern to activate hERG channels and conduct IKhERG currents (rapid delayed outward rectifier potassium current of the hERG channel). After the cells were stabilized for a few minutes, the amplitude and kinetics of IKhERG were recorded at a stimulation frequency of 0.1 Hz (6 bpm). Thereafter, the test compound was added to the preparation at increasing concentrations. For each concentration, an attempt was made to reach a steady-state effect, usually, this was achieved within 3-10 min at which time the next highest concentration was applied. The amplitude and kinetics of IKhERG are recorded in each concentration of the drug which were compared to the control values (taken as 100%). (references: Redfern WS, Carlsson L, Davis AS, Lynch WG, MacKenzie I, Palethorpe S, Siegl PK, Strang I, Sullivan AT, Wallis R, Camm AJ, Hammond TG. 2003; Relationships between preclinical cardiac electrophysiology, clinical QT interval prolongation and torsade de pointes for a broad range of drugs: evidence for a provisional safety margin in drug development. Cardiovasc. Res. 58:32-45, Sanguinetti MC, Tristani-Firouzi M. 2006; hERG potassium channels and cardiac arrhythmia. Nature 440:463-469, Webster R, Leishman D, Walker D. 2002; Towards a drug concentration effect relationship for QT prolongation and torsades de pointes. Curr. Opin. Drug Discov. Devel. 5:116-26).
Table 3. hERG and safety ratio results

[1] = Human microsome stability assay; type: in vitro ADME; conditions: 1 µM test compound, 0.5 mg/mL liver microsomal protein, 37 °C
Method: The human microsomal stability assay is used for early assessment of metabolic stability of a test compound in human liver microsomes.
Human liver microsomes (Cat.NO.: 452117, Corning, USA;Cat.NO.:H2610, Xenotech, USA) were preincubated with test compound for 10 minutes at 37 °C in 100 mM potassium phosphate buffer, pH 7.4. The reactions were initiated by adding NADPH regenerating system. The final incubation mixtures contained 1 µM test compound, 0.5 mg/mL liver microsomal protein, 1 mM MgClz, 1 mM NADP, 1 unit/mL isocitric dehydrogenase and 6 mM isocitric acid in 100 mM potassium phosphate buffer, pH 7.4. After incubation times of 0, 3, 6, 9, 15 and 30 minutes at 37 °C, 300 µL of cold acetonitrile (including internal standard) was added to 100 µL incubation mixture to terminate the reaction. Following precipitation and centrifugation, the amount of compound remaining in the samples were determined by LC-MS/MS. Controls of no NADPH regenerating system at zero and 30 minutes were also prepared and analyzed. […] Table 6. Human liver microsome stability of the compounds of present invention

T3 sequence (Q12809 whole entry): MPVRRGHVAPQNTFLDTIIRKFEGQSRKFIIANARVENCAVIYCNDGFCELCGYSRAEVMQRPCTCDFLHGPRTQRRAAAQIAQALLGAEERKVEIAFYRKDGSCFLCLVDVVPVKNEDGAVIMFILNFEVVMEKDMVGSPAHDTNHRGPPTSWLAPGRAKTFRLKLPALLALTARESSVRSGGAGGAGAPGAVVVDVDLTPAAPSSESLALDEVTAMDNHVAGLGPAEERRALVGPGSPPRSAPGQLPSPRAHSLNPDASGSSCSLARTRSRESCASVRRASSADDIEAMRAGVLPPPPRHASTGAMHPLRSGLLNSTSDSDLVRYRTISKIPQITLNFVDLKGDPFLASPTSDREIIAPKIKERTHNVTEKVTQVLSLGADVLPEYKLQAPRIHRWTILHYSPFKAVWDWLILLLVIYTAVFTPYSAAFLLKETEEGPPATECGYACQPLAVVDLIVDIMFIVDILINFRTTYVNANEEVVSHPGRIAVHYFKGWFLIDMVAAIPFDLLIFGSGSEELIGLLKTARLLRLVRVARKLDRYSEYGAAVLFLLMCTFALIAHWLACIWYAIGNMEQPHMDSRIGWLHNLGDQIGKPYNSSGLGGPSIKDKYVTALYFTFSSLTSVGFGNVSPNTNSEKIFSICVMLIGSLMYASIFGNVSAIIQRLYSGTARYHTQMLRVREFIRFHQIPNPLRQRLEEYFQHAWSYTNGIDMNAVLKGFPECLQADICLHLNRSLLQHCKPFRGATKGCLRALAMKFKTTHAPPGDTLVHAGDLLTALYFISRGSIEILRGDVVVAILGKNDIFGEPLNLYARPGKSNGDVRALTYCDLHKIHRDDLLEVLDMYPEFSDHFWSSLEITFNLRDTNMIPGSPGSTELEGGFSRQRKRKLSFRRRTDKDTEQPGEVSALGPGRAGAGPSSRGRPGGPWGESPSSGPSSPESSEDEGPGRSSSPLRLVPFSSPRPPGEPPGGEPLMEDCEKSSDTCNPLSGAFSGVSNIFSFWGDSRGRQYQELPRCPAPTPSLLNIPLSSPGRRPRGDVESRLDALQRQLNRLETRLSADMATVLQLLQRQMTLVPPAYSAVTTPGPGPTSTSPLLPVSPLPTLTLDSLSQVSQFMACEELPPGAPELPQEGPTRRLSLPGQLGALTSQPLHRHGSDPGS

Row | SMILES | IC50 (hTLR7) | IC50 (hTLR9) | IC50 (hERG channel) | IC20 (hERG channel) | hERG IC20 / TLR7 IC50 (hERG channel) | hERG IC20 / TLR9 IC50 (hERG channel) | Clearance of Human microsome [1]
1 | C[C@@H]1CN(c2ccc(C#N)c3ncccc23)C[C@H](CN2CCN(c3ccccc3)CC2)O1 [ER-887258, reference compound] | 85.2 nM | > 2000 nM | 2780 nM | 687 nM | 8.1 | 0.3 | 17.86 mL/min/kg
2 | C[C@@H]1CN(c2ccc(C#N)c3ncccc23)C[C@H](CN2CCN(c3ccccn3)CC2)O1 [ER-888285, reference compound] | 120 nM | > 2000 nM | 3110 nM | 1010 nM | 8.4 | 0.5 | 17.15 mL/min/kg
